Non-standard residues stand in square brackets, D forms with d. Residues, ends and D or L forms follow the SMILES beside them.
How the values were obtained:
A10 cell ETA receptors = target: T1, A10 cell ETA receptors (Rattus norvegicus, UniProt P26684); test: Inhibition of [125I]-ET-1 binding to A10 cell ETA receptors; settings: [125I]-ET-1 20 pM, 2 hours at 37 C; read-out: concentration producing 50% inhibition of the binding of [125I]-ET-1 to A10 cell ETA receptors
T1 construct: endogenous in cells; host or cells: A10 cells (frozen cells, about 60,000 per well)
T1 sequence (P26684 21-426): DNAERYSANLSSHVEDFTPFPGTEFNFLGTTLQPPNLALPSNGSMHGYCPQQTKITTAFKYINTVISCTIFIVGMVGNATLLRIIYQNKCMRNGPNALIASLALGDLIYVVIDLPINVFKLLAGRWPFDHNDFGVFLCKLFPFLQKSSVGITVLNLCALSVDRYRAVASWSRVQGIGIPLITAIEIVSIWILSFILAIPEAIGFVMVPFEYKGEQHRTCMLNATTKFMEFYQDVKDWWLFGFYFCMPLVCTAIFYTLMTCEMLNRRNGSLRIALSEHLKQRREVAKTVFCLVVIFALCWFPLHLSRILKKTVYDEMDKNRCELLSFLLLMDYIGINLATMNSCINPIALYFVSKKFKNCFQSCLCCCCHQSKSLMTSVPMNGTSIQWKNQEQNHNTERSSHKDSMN
Method: A) Preparation of ETA Receptors:
A10 cells are grown to confluence in Dulbecco's modified essential medium containing 10% foetal calf serum. Two days after the final medium change cells are harvested by scraping from the base of the flask and centrifuged at 1500 rpm for 10 minutes at 4-- C in an bench centrifuge. The resulting pellets are washed in 50 mM Hepes buffer pH 7.3 containing calcium chloride (1 mM) and magnesium chloride (5 mM) and resuspended at a density of 140,000 cells/ml in the same. Cell suspensions are then frozen using a mixture of methanol and solid carbon dioxide and stored at -20-- C until required. For use in the assay cells are diluted to the required density with Hepes buffer pH 7.3.
(§1) Assays are performed using Millipore 96 well filtration plates with 0.22 μm filters in a final volume of […]. Mixtures consisting of test compound and [^125 I]-ET-1 (20 pM) in buffer pH 7.4 containing 0.1% bovine serum albumin are treated with either A10 cells or cerebellum protein. Total and non-specific binding are measured in the absence and presence of unlabeled ET-1 (100 nM). Approximately 60,000 A10 cells are used per well or 5 μg of cerebellum protein. Plates are incubated for 2 hours at 37-- C before the reaction is terminated by vacuum filtration. Plates are washed twice with assay buffer at 4-- C and the filters are punched out for gamma counting.

[1] = target: T2, rat cerebellum ETB receptors (Rattus norvegicus, UniProt P21451); test: Inhibition of [125I]-ET-1 binding to rat cerebellum ETB receptors; settings: [125I]-ET-1 20 pM, 2 hours at 37 C; read-out: concentration producing 50% inhibition of the binding of [125I]-ET-1 to rat cerebellum ETB receptors
T2 construct: from tissue; host or cells: rat cerebellum, particulate fraction (4000 g pellet)
T2 sequence (P21451 27-442): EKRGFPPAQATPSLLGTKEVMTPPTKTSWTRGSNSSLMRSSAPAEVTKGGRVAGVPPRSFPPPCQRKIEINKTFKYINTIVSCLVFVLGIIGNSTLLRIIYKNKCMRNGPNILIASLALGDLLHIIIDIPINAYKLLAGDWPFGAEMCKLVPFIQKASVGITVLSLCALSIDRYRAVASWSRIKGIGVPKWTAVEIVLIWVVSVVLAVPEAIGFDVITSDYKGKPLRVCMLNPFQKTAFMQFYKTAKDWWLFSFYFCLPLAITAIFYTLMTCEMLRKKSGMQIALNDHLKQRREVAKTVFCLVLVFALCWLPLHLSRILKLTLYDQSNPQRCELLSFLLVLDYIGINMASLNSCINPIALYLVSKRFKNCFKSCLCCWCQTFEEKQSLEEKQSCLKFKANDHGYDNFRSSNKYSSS
Method: B) Preparation of ETB Receptors:
Rats are killed by cervical dislocation and the cerebellum tissue is removed into ice cold Tris buffer pH 7.4 containing sucrose (0.25M), ethylenediaminetetracetic acid (3 mM), and a cocktail of protease inhibitors. After homogenizing using a glass/teflon manual homogenizer, the samples are centrifuged at 4-- C for 17 minutes at 1000 g, and the resulting supernatants are retained. This material is centrifuged at 4000 g for 35 minutes at 4-- C and the pellets are resuspended in 50 mM Tris buffer pH 7.4, and the protein concentration is measured. Aliquots of […] are frozen in a mixture of methanol and solid carbon dioxide and stored at -20-- C until required. For use in the assay samples are diluted to the required concentration with Tris buffer pH 7.4 containing 0.1% bovine serum albumin.
as §1, with “Plates are washed twice with assay buffer at 4-- C and the filters are punched out for gamma counting.” left out

hamster bleomycin model = settings: cited from earlier work

Compound	IC50 (A10 cell ETA receptors) [µM]	IC50 [1] [µM]	anti-fibrotic effect (hamster bleomycin model)
Cc1ccccc1[C@H](Oc1cc(OCc2ccc3c(c2)OCO3)ccc1C#N)C(=O)O	0.006	35	
CC(C)C[C@@H]1NC(=O)[C@@H](C(C)C)NC(=O)[C@@H]2CCCN2C(=O)[C@@H](CC(=O)O)NC(=O)[C@@H](Cc2c[nH]c3ccccc23)NC1=O [BQ123] (cyclo(L[dW][dD]P[dV]))			anti-fibrotic effects

Reference: patent US6048893A, “Substituted phenyl compounds with a substituent having A 1,3-benzodioxole ring” (Rhone-Poulenc Rorer Limited, priority 1995, dated 2000)
